{
  "source": "patent US20070191490A1",
  "about": "“Withacnistin compounds for treatment of cancer” (priority 2006, published 2007)",
  "key": {"v-Src/3T3 tumors": {"test_system": "v-Src/3T3 tumors", "experiment": "Antitumor activity in nude mouse xenograft model, v-Src/3T3", "assay_type": "in vivo", "settings": "v-Src/3T3 xenograft, nude mice, 1 mg/kg/day i.p.; Wit = withacnistin mixture", "excerpt": "Antitumor activity in the nude mouse tumor xenograft model. Nude mice (Charles River, Wilmington, Mass., USA) were maintained in accordance with the Institutional Animal Care and Use Committee (IACUC) procedures and guidelines. A549 cells were harvested, resuspended in PBS, and injected subcutaneously (s.c.) into the right and left flank (1×10^7 cells per flank) of 8-week-old female nude mice as reported previously (Blaskovich, M. A. et al. Cancer Res., 2003, 63:1270-1279). When tumors reached about 150 mm^3, animals were randomized (four animals per group; two tumors per animal) and dosed intraperitoneally (i.p.) either with cucurbitacin analogs (0.5 or 1 mg/kg/day, i.p.) in 20% DMSO in water or with an equal volume of vehicle control. The tumor volumes were determined by measuring the length (l) and the width (w) and calculating the volume (V=lw^2/2) as described previously (Blaskovich, M. A. et al. Cancer Res., 2003, 63:1270-1279). Statistical significance between control and treated animals were evaluated by using Student's t-test.\nTo determine the ability of the cucurbitacin analogs and withacnistin to inhibit tumor growth in vivo, the antitumor activity of the cucurbitacin analogs and withacnistin against both A549 and v-Src/3T3 tumors in a nude mouse xenograft model was evaluated. When the tumors became palpable (at volumes of approximately 100-150 mm^3), the mice were treated either with vehicle control or 1 mg/kg/day of the cucurbitacins or the withacnistin mixture. Tumor volumes were monitored by caliper measurement as previously described (Blaskovich, M. A. et al. Cancer Res., 2003, 63:1270-1279) and under Materials and Methods.\nWithacnistin inhibited 57% of tumor growth while Cuc I, B, and E inhibited 45, 40, and 42% of tumor growth, respectively (FIG. 3 and Table 2)."}, "phosphotyrosine STAT3": {"test_system": "phosphotyrosine STAT3", "experiment": "P-STAT3 immunohistochemistry of A549 tumor sections", "assay_type": "in vivo, nude mice", "settings": "1 mg/kg/day; for P-STAT3 positive cells: termination day, control 76.5±1.4%", "experimental": "P-STAT3 immunohistochemistry. On the termination day of the A549 antitumor experiment, tumors were extracted and fixed in 10% neutral-buffered formalin for 6 hours. After fixation, the tissue samples were processed into paraffin blocks. Tissue sections (5 μm) were dewaxed with xylene and rehydrated through descending alcohol to deionized water and then placed in PBS. Antigens were retrieved briefly with citrate buffer, pH 6.0, in a microwave followed by a mild trypsinization (0.025% trypsin in 50 mM Tris buffer containing 0.05% calcium chloride, pH 7.6). From this point, all steps were carried out in a DAKO Autostainer (DakoCytomation California, Inc., Carpinteria, Calif., USA). Sections were rinsed three times in TBS-Tween buffer, pH 7.6, then endogenous peroxidases were quenched with 3% hydrogen peroxide and nonspecific binding with 2% normal goat serum in 3% BSA/PBS. Sections then were incubated overnight with 1:400 phospho-STAT3 (Cell Signaling Technologies) at 4° C. in a humidified chamber. Detection was performed using the Elite ABC Rabbit kit (Vector Laboratories) and DAB chromogen (DakoCytomation California, Inc.) according to the manufacturer's instructions. Slides were counterstained for 20-30 seconds with modified Mayer's hematoxylin, dehydrated through ascending alcohol, cleared, and mounted with resinous mounting medium. Quantification was performed by counting both the phospho-STAT3-positive and -negative cells on slides representative of eight tumors and significance was determined by Student's t-test.\n(§1) To determine whether phosphotyrosine STAT3 is targeted by withacnistin in vivo, and to determine if the results seen in cell culture concerning induction of apoptosis were occurring in tumors from animals treated with withacnistin, on the termination day of the A549 antitumor experiment, tumors from animals treated with Cuc A, Cuc I, and the withacnistin mixture, as well as vehicle control, were extracted and fixed in 10% neutral-buffered formalin and then processed into paraffin blocks for tissue sectioning. These tissue sections were stained separately with either TUNEL for determination of apoptosis, or phosphotyrosine STAT3 to determine if the signaling protein is inhibited in the tumors."}, "A549 tumors": {"test_system": "A549 tumors", "experiment": "TUNEL immunohistochemistry of A549 tumor sections", "assay_type": "in vivo, nude mice", "settings": "1 mg/kg/day, control 0.4±0.1%", "experimental": "TUNEL immunohistochemistry. Tumors were harvested, […], and dewaxed as described for P-STAT3 immunohistochemistry. Tissue sections (5 μm) were digested for 10 minutes with 25 μg/ml proteinase K in PBS and then washed thoroughly. Peroxidases were quenched with 3% hydrogen peroxide in PBS and washed. Sections were equilibrated with equilibration buffer, then incubated in 30% TdT enzymes/70% digoxigenin nucleotidyl reaction buffer for 1 hour at 37° C. in a humidified chamber. The labeling reaction was stopped in stop/wash buffer with moderate shaking. Slides then were placed on the Dako Autostainer and incubated with antidigoxigenin-peroxidase (DakoCytomation California, Inc.) for 30 minutes using DAB substrate. Sections were counterstained with methyl green (Vector Laboratories), dehydrated through ascending alcohol, cleared, and mounted with resinous mounting medium. The quantification was performed by counting both the TUNEL-positive and -negative cells on slides representative of eight tumors and significance was determined by Student's t-test.\nas §1"}},
  "data": [
    {"smiles": "CC(=O)OC(C)(C)/C=C/C(=O)[C@](C)(O)[C@H]1[C@H](O)C[C@@]2(C)[C@@H]3CC=C4[C@@H](C[C@H](O)C(=O)C4(C)C)[C@]3(CO)C(=O)C[C@]12C", "note": "[Cuc A, cucurbitacin A]", "values": [
      {"measurement": "% Inhibition of tumor growth", "setting": "v-Src/3T3 tumors", "result": 16, "unit": "%"},
      {"measurement": "inhibition of phosphotyrosine-STAT3 compared to vehicle control", "setting": "phosphotyrosine STAT3", "result": "no inhibition"},
      {"measurement": "P-STAT3 positive cells", "setting": "phosphotyrosine STAT3", "result": "80.8±1.8", "unit": "%"},
      {"measurement": "TUNEL-positive cells", "setting": "A549 tumors", "result": "0.3±0.2", "unit": "%"}
    ]},
    {"smiles": "CC(C)(O)/C=C/C(=O)[C@](C)(O)[C@H]1[C@H](O)C[C@@]2(C)[C@@H]3CC=C4[C@@H](C=C(O)C(=O)C4(C)C)[C@]3(C)C(=O)C[C@]12C", "note": "[Cuc I, cucurbitacin I]", "values": [
      {"measurement": "% Inhibition of tumor growth", "setting": "v-Src/3T3 tumors", "result": 45, "unit": "%"},
      {"measurement": "inhibition of phosphotyrosine-STAT3 compared to vehicle control", "setting": "phosphotyrosine STAT3", "result": 28.5, "unit": "%"},
      {"measurement": "P-STAT3 positive cells", "setting": "phosphotyrosine STAT3", "result": "54.7±4.5", "unit": "%"},
      {"measurement": "TUNEL-positive cells", "setting": "A549 tumors", "result": "10.5±3.0", "unit": "%"}
    ]},
    {"smiles": "CC(=O)OC[C@]12CC[C@H]3[C@@H](C[C@H]4O[C@]45[C@@H](O)C=CC(=O)[C@]35C)[C@@H]1CC[C@@H]2[C@H](C)[C@H]1CC(C)=C(C)C(=O)O1", "note": "[withacnistin]", "values": [
      {"measurement": "% Inhibition of tumor growth", "setting": "v-Src/3T3 tumors", "result": 57, "unit": "%"},
      {"measurement": "inhibition of phosphotyrosine-STAT3 compared to vehicle control", "setting": "phosphotyrosine STAT3", "result": 70.5, "unit": "%"},
      {"measurement": "P-STAT3 positive cells", "setting": "phosphotyrosine STAT3", "result": "22.6±7.3", "unit": "%"},
      {"measurement": "TUNEL-positive cells", "setting": "A549 tumors", "result": "14.3±2.7", "unit": "%"}
    ]}
  ]
}
